# Publication PMC12998938, “Neutrophil store-operated Ca^2+ entry: A correctable biomarker of cystic fibrosis lung disease progression” (Journal of cystic fibrosis : official journal of the …, 2025)
# How the values were obtained:
# [1] = system: SOCE/Orai1 in CF peripheral blood neutrophils; experiment: Fluo-4 Ca2+ assay, global thapsigargin-stimulated Ca2+ response (SOCE), CF neutrophils; assay type: cell-based, human
# Protocol: Neutrophils were immediately isolated by negative selection from deidentified blood samples using an EasySep human neutrophil isolation kit (Stem Cell Technologies) as described. Cytosolic Ca^2+ was measured using Fluo-4 as described. Protein lysate from isolated blood neutrophils was characterized by liquid chromatography with tandem mass spectrometry (LC-MS/MS) as described. Degranulation products in media were quantified by Luminex assay using a custom Bio-Plex human kit (BioRad) per the manufacturer’s protocol […]. Detailed methods for all experiments and measurements are provided in an online data supplement.
# (§1) Isolated neutrophils were incubated with peptide or vehicle control for 3 h. For the final hour of treatment, cells were loaded with Fluo-4 direct (Thermofisher) for 45 min at 37°C and 15 min at room temperature as described.
# Fluo-4 Ca^2+ assays. Isolated neutrophils were incubated with peptide or vehicle control for 3 h. For the final hour of treatment, cells were loaded with Fluo-4 direct (Thermofisher) for 45 min at 37°C and 15 min at room temperature. For global Ca^2+ measurements, baseline fluorescent readings were made for 2 min (1 read every 30 s) using a Tecan Infinite M1000 plate reader (ex 494 em 516 nm, bandwidth 5 nm) before thapsigargin (Sigma-Aldrich) was added and the change in emission was recorded for 10 min (1 read every 30 s). To isolate phases of store operated Ca^2+ entry, cells underwent 3 rounds of centrifugation and resuspension in Ca^2+-free Ringer’s solution to remove extracellular Ca^2+. Baseline fluo-4 fluorescence was read for 2 min before cell were stimulated with thapsigargin (Tocris). Reads continued for ~5 min before 1.2 mM Ca^2+ was added to the extracellular solution and SOCE was measured for ~10 mins. For analysis, all fluo-4 fluorescence reads are normalized to baseline.
# [2] = system: ER Ca2+ store release in non-CF neutrophils; experiment: Fluo-4 ER Ca2+ release, non-CF neutrophils; assay type: cell-based, human; conditions: 3 h pre-treatment, 1 μM thapsigargin, no extracellular Ca2+, 2 donors in triplicate
# Protocol: as §1
# (§2) Fig. 3. ELD607 inhibits SOCE in non-CF and CF neutrophils. (A) and (B) Mean changes in fluo-4 fluorescence as a marker of cytoplasmic Ca^2+ levels in non-CF and CF neutrophils respectively before and after stimulation with 1 μM thapsigargin (Tg). Before stimulation, neutrophils were exposed to vehicle (0.1% DMSO in PBS), 10 μM ELD607 or scrambled peptide (control) for 3 h. N = 10 non-CF and 21 CF donors. Stats show ELD607 vs vehicle or scrambled peptide based on color. […] Neutrophils were stimulated with thapsigargin (1 μM) in the absence of extracellular Ca^2+ to allow the release of Ca^2+ stores to be measured. Extracellular Ca^2+ was then returned so that extracellular Ca^2+ influx could be measured. (C) Mean fold change in Fluo-4 fluorescence during ER store release in non-CF and CF neutrophils. […] (E) Mean fold change in fluo-4 fluorescence during Ca^2+ influx in non-CF and CF neutrophils. […]
# (§3) SOCE has 2 phases: release of Ca^2+ from ER stores and Ca^2+ influx from the extracellular space via Ca^2+ channels such as Orai1. […] Once the stores had emptied, extracellular Ca^2+ was reintroduced and Ca^2+ influx was measured (Fig. 3C–F). […]
# [3] = system: ER Ca2+ store release in CF neutrophils; experiment: Fluo-4 ER Ca2+ release, CF neutrophils; assay type: cell-based, human; conditions: 3 h pre-treatment, 1 μM thapsigargin, no extracellular Ca2+, 3 donors in triplicate, curves non-CF vs CF p<0.0001
# Protocol: as §1, §2, §3
# [4] = system: Ca2+ influx in non-CF neutrophils; experiment: Fluo-4 Ca2+ influx across the plasma membrane, non-CF neutrophils; assay type: cell-based, human
# Protocol: as §1
# (§4) Fig. 3. ELD607 inhibits SOCE in non-CF and CF neutrophils. (A) and (B) Mean changes in fluo-4 fluorescence as a marker of cytoplasmic Ca^2+ levels in non-CF and CF neutrophils respectively before and after stimulation with 1 μM thapsigargin (Tg). Before stimulation, neutrophils were exposed to vehicle (0.1% DMSO in PBS), 10 μM ELD607 or scrambled peptide (control) for 3 h. N = 10 non-CF and 21 CF donors. Stats show ELD607 vs vehicle or scrambled peptide based on color. (C-F) Isolation of ER Ca^2+ release vs Ca^2+ influx across the plasma membrane in non-CF and CF Neutrophils. Neutrophils were stimulated with thapsigargin (1 μM) in the absence of extracellular Ca^2+ to allow the release of Ca^2+ stores to be measured. Extracellular Ca^2+ was then returned so that extracellular Ca^2+ influx could be measured. (C) Mean fold change in Fluo-4 fluorescence during ER store release in non-CF and CF neutrophils. […] (E) Mean fold change in fluo-4 fluorescence during Ca^2+ influx in non-CF and CF neutrophils. […]
# (§5) SOCE has 2 phases: release of Ca^2+ from ER stores and Ca^2+ influx from the extracellular space via Ca^2+ channels such as Orai1. […] Once the stores had emptied, extracellular Ca^2+ was reintroduced and Ca^2+ influx was measured (Fig. 3C–F).
# (§6) Fluo-4 Ca^2+ assays. […] For global Ca^2+ measurements, baseline fluorescent readings were made for 2 min (1 read every 30 s) using a Tecan Infinite M1000 plate reader (ex 494 em 516 nm, bandwidth 5 nm) before thapsigargin (Sigma-Aldrich) was added and the change in emission was recorded for 10 min (1 read every 30 s). […] Baseline fluo-4 fluorescence was read for 2 min before cell were stimulated with thapsigargin (Tocris). Reads continued for ~5 min before 1.2 mM Ca^2+ was added to the extracellular solution and SOCE was measured for ~10 mins. For analysis, all fluo-4 fluorescence reads are normalized to baseline.
# [5] = system: Ca2+ influx in CF neutrophils; experiment: Fluo-4 Ca2+ influx across the plasma membrane, CF neutrophils; assay type: cell-based, human
# Protocol: as §1, §4, §5, §6
# Orai1 = experiment: SOCE in triple knockout HEK293T cells transfected with Orai1; assay type: cell-based; conditions: TKO + Orai1, vs wild-type HEK293T; thapsigargin; dose response; 7-9 replicates; Orai1, 2, 3 plots differ p<0.001
# Description: (§7) We hypothesized that inhibiting SOCE in CF neutrophils may reduce the secretion of neutrophil elastase and other proteins associated with CF lung disease. To validate ELD607’s specificity for Orai1 over Orai2 and Orai3, we first evaluated ELD607 function in HEK293T cells that had Orai1, Orai2 and Orai3 stably knocked out. […] Next we evaluated ELD607’s ability to inhibit SOCE in non-CF and CF neutrophils.
# (§8) Supplemental figure 3. […] Dose responses of thapsigargin-induced changes in cytoplasmic Ca^2+ concentrations. These studies were performed in HEK293T where Orai1, Orai2 and Orai3 had been stably knocked down (triple knockout cells, TKO) or in TKO cells that were transiently transfected with Orai1, Orai2 or Orai3 as indicated. All data are from 7-9 replicates per data point from 3 separate experiments.
# Orai2 = experiment: SOCE in triple knockout HEK293T cells transfected with Orai2; assay type: cell-based
# Description: as §7, §8
# [6] = system: bacterial lung infections in mice; conditions: cited from earlier work
# Description: In ... || CF neutrophils with elevated SOCE undergo more degranulation, leading to greater release of proteases/pro-inflammatory mediators. Therefore, increased SOCE may be a driving force for declining CF lung function. However, there is much to do to fully understand this phenomenon, and our data identify an association, not a causality. […] To date, several blood biomarkers have been identified as predictors of CF lung disease. Most biomarkers ( ...
# [7] = system: Staphylococcus aureus-infected mice; conditions: ref [21], cited from earlier work
# MRSA-infected mice = system: MRSA-infected mice; design: method as in earlier work; conditions: reduced lung injury, increased survival, ref [21]; cited from earlier work
# [8] = murine models of bacterial lung infections, ref [21]
sequence,measurement,setting,value
"VHDIVNMLIRG [ELD607, size-optimized SPLUNC1/α6 peptidomimetic]",inhibition of SOCE (global Ca2+ response),"[1]; CF, 10 μM peptide, 3 h pre-treatment, 1 μM thapsigargin, Fluo-4, N = 21 donors",significantly inhibited SOCE regardless of genotype
same,completeness of inhibition of Ca2+ signaling,[1]; neutrophils (discussion of Fig. 3),not 100% inhibited
same,inhibition of ER Ca2+ release,[2],little effect
same,IC50,[3],0.413 µM
same,attenuation of Ca2+ influx,[4]; non-CF neutrophils (Fig. 3),markedly attenuated Ca^2+ influx
same,IC50,"[4]; non-CF, 3 h pre-treatment, 1 μM thapsigargin, extracellular Ca2+ (1.2 mM) returned, 2 donors in triplicate, vs CF p<0.0001",0.34 µM
same,Ca2+ influx relative to non-CF levels,"[5]; CF neutrophils, absolute terms",restored Ca^2+ from influx CF neutrophils to non-CF levels
same,IC50,"[5]; CF, 3 h pre-treatment, 1 μM thapsigargin, extracellular Ca2+ (1.2 mM) returned, 3 donors in triplicate, vs non-CF p<0.0001",0.493 µM
same,sensitivity of SOCE to ELD607,Orai1,restored the sensitivity to ELD607 seen in wild-type HEK293T cells
same,sensitivity of SOCE to ELD607,"Orai2; TKO + Orai2, thapsigargin, dose response, 7-9 replicates",relatively insensitive
same,specificity for Orai1: effect on Orai2,Orai2; discussion summary of supplemental figure 3,little effect on Orai2 and Orai3
same,neutrophilia caused by bacterial infections,"[6]; inhaled ELD607, ref [53]",abolished neutrophilia
same,neutrophilia and lung damage,[6]; [8],reduced neutrophilia and lung damage
same,survival,[6]; [8],increased survival
same,beneficial effects after depletion of alveolar macrophages,"[6]; wild-type mice, alveolar macrophages depleted, ref [21]",abolished the beneficial effects of ELD607
same,neutrophilia and neutrophil elastase release,[7]; S. aureus-infected mice,reduces neutrophilia and neutrophil elastase release
same,neutrophil influx into the lungs,"[7]; mice, S. aureus, reduced lung injury, increased survival",reduces neutrophil influx into the lungs of mice
same,neutrophil influx into the lungs,MRSA-infected mice,reduces neutrophil influx into the lungs of mice
